Data published in patent US10821079B2, “PKC activators and combinations thereof” (Cognitive Research Enterprises, Inc., priority 2011, dated 2020).

How the values were obtained:
PKCα = PKCα (Homo sapiens, UniProt P17252); assay: Activation of purified PKC isozymes, radiometric: PKC-α; assay type: biochemical
Method: To measure PKC activity, 10 μg of protein from either cytosol or membrane was incubated for 15 min at 37° C. in the presence of 10 μM histones, 4.89 mM CaCl2, 1.2 μg/μl phosphatidyl-L-serine, 0.18 μg/μl 1,2-dioctanoyl-sn-glycerol, 10 mM MgCl2, 20 mM HEPES (pH 7.4), 0.8 mM EDTA, 4 mM EGTA, 4% glycerol, 8 μg/ml aprotinin, 8 μg/ml leupeptin, 2 mM benzamidine, and 0.5 μCi of [γ-^32P]ATP. [^32P]Phosphoprotein formation was measured by adsorption onto phosphocellulose as described previously. See Nelson et al. (2009) J Biol Chem 284, 34514-34521. For measurements of activation by RA, PKC activity was measured in the absence of diacylglycerol (DAG) and phosphatidylserine, as described by Nelson et al. (2009) J Biol Chem 284, 34514-34521. PKC-δ and PKC-ε were measured in the absence of added EGTA and CaCl^2, as described by Kanno et al. (2006) J Lipid Res 47, 1146-1156. The enzyme was provided as a purified isozyme for in vitro experiments.
(§1) To measure PKC, 10 μl of cell homogenate or purified PKC isoform was incubated for 15 min at 37° C. in the presence of 10 μM histones, 4.89 mM CaCl2, 1.2 μg/μl phosphatidyl-L-serine, 0.18 μg/μl 1,2-dioctanoyl-sn-glycerol, 10 mM MgCl2, 20 mM HEPES (pH 7.4), 0.8 mM EDTA, 4 mM EGTA, 4% glycerol, 8 μg/ml aprotinin, 8 μg/ml leupeptin, and 2 mM benzamidine. [γ32P]ATP (0.5 μCi) was added and 32P-phosphoprotein formation was measured by adsorption onto phosphocellulose as described previously. See Nelson et al., J. Neurochemistry, 1995, 65: 2350-2357.
(§2) PKC activity of each compound was measured in the absence of diacylglycerol and phosphatidylserine and PKC-δ and PKC-ε were measured in the absence of added EGTA and CaCl2, as described by Kanno et al., J. Lipid Res., 2006, 47: 1146-1156. Low concentrations of Ca^2+ were needed because high Ca^2+ can interact with the PKC phosphatidylserine binding site and prevents activation. […] To determine their PKC isoform specificity, the compounds were pre-incubated with purified isoforms of PKC for five minutes and the PKC activity was measured radiometrically.
(§3) The activation and PKC isozyme specificity of DCPLA-ethyl ester was measured following the procedures in Example 1(B) and (C), except that 9 ng of the purified isozyme was used and it was pre-incubated for 5 minutes at room temperature (FIG. 3). PKC-ε activation by DCPLA-tert-butyl ester and DCPLA-retinyl ester was measured in the same manner as DCPLA-ethyl ester (FIG. 3).

PKC-ε [1] = molecular target: T1, PKC-ε (Homo sapiens, UniProt Q02156); assay: Activation of purified PKC isozymes, radiometric: PKC-ε; assay type: biochemical; conditions: for Specificity ε/α: Activation of PKC-ε ÷ activation or inhibition of PKCα at 3 × EC50
T1 sequence (Q02156 1-737): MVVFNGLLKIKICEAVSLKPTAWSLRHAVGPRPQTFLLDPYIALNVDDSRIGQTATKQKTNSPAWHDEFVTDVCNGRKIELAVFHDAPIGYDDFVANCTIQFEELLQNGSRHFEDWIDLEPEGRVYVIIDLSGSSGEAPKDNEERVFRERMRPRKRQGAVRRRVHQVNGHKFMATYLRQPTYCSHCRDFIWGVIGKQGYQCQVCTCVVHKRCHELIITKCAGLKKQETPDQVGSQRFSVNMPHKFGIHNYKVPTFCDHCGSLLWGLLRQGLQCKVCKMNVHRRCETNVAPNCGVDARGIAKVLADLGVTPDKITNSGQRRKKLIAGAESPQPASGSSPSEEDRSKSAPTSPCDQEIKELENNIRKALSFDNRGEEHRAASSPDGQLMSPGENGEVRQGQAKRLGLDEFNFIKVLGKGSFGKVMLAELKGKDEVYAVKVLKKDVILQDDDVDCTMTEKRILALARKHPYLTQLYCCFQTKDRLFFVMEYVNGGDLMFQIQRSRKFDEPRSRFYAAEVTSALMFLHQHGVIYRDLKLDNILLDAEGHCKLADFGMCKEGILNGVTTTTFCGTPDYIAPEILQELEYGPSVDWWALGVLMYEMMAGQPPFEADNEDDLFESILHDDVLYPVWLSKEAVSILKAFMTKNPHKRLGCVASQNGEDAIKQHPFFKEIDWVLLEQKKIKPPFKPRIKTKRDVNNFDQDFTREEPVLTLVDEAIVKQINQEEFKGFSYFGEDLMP
Method: as §1, §2, §3
The EC50 values, PKC specificity, and activation for a select number of DCPLA esters was determined (see Table 1). EC50 values were determined by measuring the lowest concentration that activates by 50% of maximum activation. […] The specificity and activation of PKC by the various esters of DCPLA were calculated from the measurements of activation of PKC isozymes.

[2] = tested on: phosphatidylserine (C2) binding site; assay: 3H-DCPLA-ME binding to rat brain slices with competitors, film autoradiography
Method: To determine the binding site of DCPLA-ME, ^3H-DCPLA-ME was incubated with rat brain slices in the absence and presence of known C1 and C2 competitors. More specifically, rat brain sections were fixed with formaldehyde, sliced, and incubated with (1) ^3H-DCPLA-ME alone; (2) ^3H-DCPLA-ME with DCPLA; (3) ^3H-DCPLA-ME with Phorbol ester; or (4) ^3H-DCPLA-ME and Bryostatin 1. After incubation, the slices were washed with a buffer made of 130 mM NaCl, 5 mM MgCl, 5 mM KCl, 1 mM EGTA, and 0.1% bovine serum albumin in 10 mM HEPES-NaOH, pH 7.4, dried, and analyzed with film-autoradiography.

[3] = tested on: rat primary hippocampal neurons; assay: Neurotoxic effect of Aβ1-42 assemblies, MTT viability; assay type: cell-based; conditions: 20 hr
Method: Viability of cells was measured by MTT assay. MTT (3-(4,5-Dimethylthiazol-2-yl)-2,5-diphenyltetrazolium bromide) is a tetrazolium salt that is cleaved to formazan by the succinate dehydrogenase, which is only active in viable cells. After solubilization of the formazan, the amount of dye can be quantified with a microplate reader at 570 nm along with a reference of 630 nm. For MTT assay, 5×104 primary rat hippocampal neurons from 18-day-old embryonic Sprague-Dawley rat brains were plated on each well of 24-well plates coated with poly-D-lysine. After treatment, the cells were washed with 1×PBS and were incubated with 200 μl of 1 mg/ml MTT solution (Sigma, USA) at 37° C. for 2 hr. Then the MTT-solution was removed and the cells were lysed with 200 μl isopropanol containing 0.04 M HCl and 160 mM NaOH for 10 min. Finally, the reading was done at 570 nm and 630 nm. All the samples were done in triplicates and the data was represented as the percentage of control.
To assess the neurotoxic effect of different sized oligomers, rat primary hippocampal neurons were treated with variable concentrations of these Aβ1-42 species for 20 hr. Viability of the treated cells was compared to untreated cells using the MTT assay.

PKC-ε [4] = assay: PKC-ε translocation to membrane in SH-SY5Y cells (Western blot); assay type: cell-based, human; conditions: ASPD; ADDL at 20-fold higher concentrations
Method: Cells were harvested in homogenizing buffer containing 10 mM Tris-Cl (pH 7.4), 1 mM PMSF (phenylmethylsulfonyl fluoride), 1 mM EGTA, 1 mM EDTA, 50 mM NaF, and 20 μM leupeptin and were lysed by sonication. The homogenate was centrifuged at 100,000×g for 15 min at 4° C. to obtain the cytosolic fraction (supernatant) and membrane (pellet). The pellet was resuspended in the homogenizing buffer by sonication. Protein concentration was measured using the Coomassie Plus (Bradford) Protein Assay kit (Pierce, USA). Following quantification, 20 μg of protein from each sample was subjected to SDS-PAGE analysis in 4-20% gradient Tris-Glycine gel (Invitrogen, USA). The separated protein was then transferred to nitrocellulose membrane. The membrane was blocked with BSA at room temperature for 15 min and was incubated with primary antibody over night at 4° C. After the incubation, it was washed three times with TBS-T (Tris Buffered saline-Tween 20) and further incubated with alkaline phosphatase conjugated secondary antibody (Jackson Immunoresearch Laboratories, USA) at 1:10,000 dilution for 45 min. The membrane was finally washed three times with TBS-T and developed using the 1-step NBT-BCIP substrate (Pierce, USA). Western Blot was imaged in the ImageQuant RT-ECL (GE Life Sciences, Piscataway, N.J.) and densitometric quantification was performed using the IMAL software (Blanchette Rockefeller Neurosciences Institute, Morgantown, W. Va.). For translocation assays, PKC activation was represented as the percentage of total protein in the membrane (membrane/cytosol+membrane).
Equal amounts of proteins were loaded in each lane (20 μg) for both the cytosol and membrane fractions. Activation of PKC was calculated as the percentage of total PKC in the membrane (membrane/cytosol+membrane).

[5] = tested on: rat hippocampal primary neurons; assay: Synaptic marker immunofluorescence in rat hippocampal primary neurons; assay type: cell-based; conditions: 50 nM ASPDs; 1 μM ADDLs; 20 hr
Method: Cells were grown in two chambered slides (Nunc, USA) at low density. For immunofluorescence staining, the cells were washed with PBS (pH 7.4) and fixed with 4% paraformaldehyde for 4 min. Following fixation, the cells were blocked and permeabilized with 5% serum and 0.3% Triton X 100 in 1×PBS for 30 min. The cells were washed three times with 1×PBS and incubated with primary antibodies for 1 hr at 1:100 dilution. The incubation slides were then washed again three times in 1×PBS and were incubated with the FITC anti-rabbit IgG and Rhodamine anti-mouse IgG for 1 hr at 1:400 dilution. The cells were further washed and treated with DAPI (4′,6-diamidino-2′-phenylindole, dihydrochloride) (Thermo Scientific, USA) to stain the nucleus. Finally, the slides were washed and mounted in Pro Long Gold antifade mounting solution (Invitrogen, USA) and were viewed under the LSM 710 Meta confocal microscope (Zeiss) at 350 nm, 490 nm, and 540 nm excitation and 470 nm, 525 nm, and 625 nm emission for DAPI, FITC, and Rhodamine respectively. Six individual fields at 63× oil lens magnification were analyzed for the mean fluorescence intensity (MFI) in each channel. The co-localization correlation generated by the ZEN software (Zeiss).
To estimate the synaptic damage caused by the ASPDs on primary hippocampal neurons, the expression of synaptophysin (a presynaptic marker) and PSD-95 (a postsynaptic marker) was measured by immunofluorescence staining. […] Following a 20 hr incubation period, the cells were stained for nucleus, PSD-95, and synaptophysin. Expression levels were calculated as the change of percentage in mean fluorescence intensity compared to untreated cells.
Primary neurons, treated and untreated, were immunostained for MAP-2, synaptophysin, and PSD-95 to determine the synaptic integrity. […] Following a 20 hr incubation period, the cells were stained for MAP-2, PSD-95, and synaptophysin as described above.

## CCCCC/C=C\C/C=C\CCCCCCCC(=O)O[C@H]1CC[C@@]2(C)C(=CC[C@H]3[C@@H]4CC[C@H]([C@H](C)CCCC(C)C)[C@@]4(C)CC[C@@H]32)C1 [Cholesteryl linoleate, cholesteryl linoleate]
PKCα
  PKC-α activation: 20%
PKC-ε [1]
  PKC-ε activation (in words): little or no activation

## CCCCCC1CC1CC1CC1CCCCCCCC(=O)O (stereo not shown) [DCPLA, cyclopropanated linoleic acid]
[2]
  3H-DCPLA-ME binding, 30 nM competitor: 86%
  3H-DCPLA-ME binding, 1 μM competitor: 35%
PKC-ε [1]
  Specificity ε/α: 7.4

## CCCCCCCCC1CC1CCCCCCCCOC(=O)CCCCCCCC1CC1CC1CC1CCCCC (stereo not shown) [DCPLA-cyclopropanated oleyl ester]
PKC-ε [1]
  PKC-ε activation at peak: 140 % of control
  concentration of maximal activation: 10 nM
  Specificity ε/α: 8.1

## CCCCCC1CC1CC1CC1CCCCCCCC(=O)OCC (stereo not shown) [DCPLA-ethyl ester]
PKC-ε [1]
  Specificity ε/α: 4.2

## CCCCCC1CC1CC1CC1CCCCCCCC(=O)OC/C=C(C)/C=C/C=C(C)/C=C/C1=C(C)CCCC1(C)C (stereo not shown) [DCPLA-retinyl ester]
PKC-ε [1]; lowest concentration that activates by 50% of maximum activation
  EC50: 10 nM
PKC-ε [1]; of PKCε at maximum
  Activation: 129 % of control

## CCCC(=O)O[C@@H]1[C@@H](C)[C@@]2(O)[C@@H](C=C(CO)C[C@]3(O)C(=O)C(C)=C[C@@H]23)[C@@H]2C(C)(C)[C@]12OC(=O)CCC [Phorbol ester (PdBu)]
[2]
  3H-DCPLA-ME binding, 30 nM competitor: 100%
  3H-DCPLA-ME binding, 1 μM competitor: 81%

## ADDL: Aβ derived diffusible ligands prepared from Aβ1-42
[3]; 50 nM
  Viability of primary neuron (Mean ± SEM): 91.35 ± 1.44 % of control
[3]; 500 nM
  Viability of primary neuron (Mean ± SEM): 79.01 ± 11.32 % of control
[3]; 1 μM
  viability of neurons: 50.98±3.8%
[3]; 1000 nM
  Viability of primary neuron (Mean ± SEM): 49.02 ± 7.26 % of control
PKC-ε [4]
  PKC-ε membrane translocation: 80.82±4.025%
[5]
  synaptophysin intensity compared to the control: 75.64±4.84%

## oAβ <100 kDa: filtrate from the 100 kDa filtration of the ASPD preparation
[3]; 50 nM
  Viability of primary neuron (Mean ± SEM): 76.01 ± 5.54 % of control
[3]; 500 nM
  Viability of primary neuron (Mean ± SEM): 62.94 ± 9.53 % of control
[3]; 1000 nM
  Viability of primary neuron (Mean ± SEM): 53.52 ± 2.43 % of control
